Experimental data taken from patent US5985541A, “Peptide capable of being recognized by antibodies recognizing the C33 antigen of hepatitis C virus” (Bio Merieux, priority 1995, dated 1999).
Where no end group is shown, it is not given here.

Test system: anti-C33 antibodies
Assay: Spotscan point substitution tests on the Lys-Phe-Ser-Ser-Arg-Leu-Gly-Ala peptide
Format: binding
Details: point or double substitution of amino acids
Procedure: In order to determine the degree to which the nature of the various amino acids constituting the Lys-Phe-Ser-Ser-Arg-Leu-Gly-Ala peptide can vary without reducing the antigenic properties of said peptide with respect to anti-C33 antibodies, point substitution tests were performed.
The peptides were synthesized by the method described in the previous example, known as "Spotscan", substituting each amino acid on the peptide at a given position by the other nineteen. These peptides were then tested as described above. The size of each residue can thus be examined and the peptide grouping the best amino acids in each position can then be synthesized.

Sequence	response compared with the Lys-Phe-Ser-Ser-Arg-Leu-Gly-Ala peptide
KASSYLGA [SEQ ID NO: 36]	advantageously
KFSSGLGA [SEQ ID NO: 32]	better response
KFSSPLGA [SEQ ID NO: 33]	better response
KFSSYLGA [SEQ ID NO: 34]	better response
KHSSYLGA [SEQ ID NO: 37]	advantageously
KYSSRLGA [SEQ ID NO: 35]	equivalent response

Test system: anti-C33 70-13 or 12A1H2 monoclonal antibodies
Assay: Spotscan immunoreactivity of overlapping octapeptides with anti-C33 monoclonal antibodies
Format: binding
Details: monoclonal antibodies 100 nM; β-galactosidase anti-mouse conjugate 1/200; estimated qualitatively
Procedure: The synthesis was conducted on an activated cellulose membrane according to the technique developed by Berg et al. (1989, J. Ann. Chem. Soc., 111, 8024-8026) and available from Cambridge Research Biochemicals (trade name Spotscan). This technique allows simultaneous synthesis of a large number of peptides. The escerified amino acids used in the synthesis have an α-amino group protected by an FMOC group (Nova Biochem) and side groups protected by protective groups such as, for example, trityl, t-butyl ester, or t-butyl ether. The esterified amino acids are dissolved in N-methylpyrrolidone (NMP) at the concentration of […] and 0.9 μl are deposited at the attachment sites of bromphenol blue. After 15 minutes incubation, amino acids are deposited once again, followed by a further incubation of 15 minutes. If the coupling between the two amino acids is done correctly, a color change is observed (transition from blue to yellow-green). After three washings in DMF, an acetylation step is performed by acetic anhydride. Then the terminal amino groups of the peptides undergoing synthesis are deprotected by piperidine in a 20% solution in DMF. The deposition sites are re-stained by a 1% bromophenol blue solution in DMF, washed three times with methanol, and dried. This sequence of operations constitutes one amino acid addition cycle, and this cycle is repeated until synthesis is complete. When all the amino acids have been added, the NH2 terminal group of the last amino acid is deprotected by piperidine in a 20% solution in DMF and acetylated with acetic anhydride. The protective groups of the side chain are removed by a mixture of dichloromethane/trifluoroacetic acid/triisobutylsilane (5 ml/5 ml/250 μl). The immunoreactivity of the peptides thus synthesized can then be tested, for example, by ELISA.
After synthesis of the various octapeptides, the cellulose membrane is rinsed with methanol, washed in TBS (0.1 M Tris, pH 7.2) then incubated overnight at room temperature in saturation buffer (available from Cambridge Research Biochemicals). After several washings with TBS-T (0.1 M Tris, pH 7.2-0.05% Tween 20), the membrane is placed in contact with a solution of anti-C33 70-13 or 12A1H2 monoclonal antibodies (100 nM), and incubated for four hours at room temperature. After three washings with TBS-T, the anti-mouse-immunoglobulin conjugate labeled with β-galactosidase (available from Cambridge Research Biochemicals) is added to a 1/200 dilution and these materials are incubated for two hours at room temperature. After several washings of the membrane with 0.05% TBS-Tween and PBS, the immunoreactivity at the various spots is developed by adding a solution of substrate (5-bromo-4-chloro-3-indoyl-β-D-galactopyranoside in PBS containing magnesium chloride and potassium ferricyanide) and incubating for ten to forty minutes. The color of the spots is estimated qualitatively on a numerical scale from 0 to 5.

Sequence	color of the spots (immunoreactivity)
DGAKFSSR	first color
FSSRLGAA	maximum
KFSSRLGA	maximum
RLGAAGAE	disappears completely
SRLGAAGA	very slight coloration

Test system: mixture of human sera from patients infected by HCV (anti-C33 antibodies)
Assay: Spotscan immunoreactivity of overlapping octapeptides with mixture of human sera
Format: binding
Details: 1/50 dilution of human sera mixture; anti-human-immunoglobulin conjugate 1/200

Sequence	color of the spots (immunoreactivity)
FSSRLGAA	maximum color
